Patent EP4417602A1, “SUBSTITUTED PYRAZOLE CARBOXAMIDES, SALTS THEREOF AND THEIR USE AS HERBICIDALLY ACTIVE SUBSTANCES” (Bayer AG, priority 2023, dated 2024)

Legend:
ECHCG = assay: A. Herbicidal pre-emergence action on harmful plants (Tables A); format: in vivo, Echinochloa crus-galli; settings: application rate 1280 g/ha; visual grading after ca. 3 weeks vs untreated controls; 100% = plants have died off, 0% = as control plants
Outline: (§1)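 Greenhouse pre-emergence test: compound applied to the soil surface at 1280 g/ha or below, and herbicidal effect rated visually at ca. 3 weeks on a 0–100% scale against untreated plants.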

SETVI = assay: as above; format: in vivo, Setaria viridis; settings: application rate 1280 g/ha; visual grading after ca. 3 weeks vs untreated controls; 100% = plants have died off, 0% = as control plants
Outline: as §1

POAAN [1] = assay: as above; format: in vivo, Poa annua; settings: application rate 1280 g/ha; visual grading after ca. 3 weeks vs untreated controls; 100% = plants have died off, 0% = as control plants
Outline: as §1

AMARE [2] = assay: as above; format: in vivo, Amaranthus retroflexus; settings: application rate 1280 g/ha; visual grading after ca. 3 weeks vs untreated controls; 100% = plants have died off, 0% = as control plants
Outline: as §1

DIGSA [3] = assay: as above; format: in vivo, Digitaria sanguinalis; settings: application rate 1280 g/ha; Table A12a
Outline: as §1

MATIN = assay: B. Herbicidal post-emergence action on harmful plants (Tables B); format: in vivo, Matricaria inodora; settings: application rate 1280 g/ha; Table B4a
Outline: (§2)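 Activity was scored visually as % damage (100% = dead, 0% = like untreated) about 3 weeks after treatment. Plants at the one-leaf stage, 2-3 weeks old, were sprayed with WP/EC formulations plus 0.5% additive (600 L/ha water, up to 1280 g/ha). Plants were grown in sandy loam in a greenhouse.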

AMARE [4] = assay: as above; format: in vivo, Amaranthus retroflexus; settings: application rate 1280 g/ha; Table B8
Protocol: (§3) Seeds of mono- and dicotyledonous weed plants were placed in plastic pots in sandy loam soil (doubly sown with in each case one species of mono- or dicotyledonous weed plants per pot), covered with soil and cultivated in a greenhouse under controlled growth conditions. 2 to 3 weeks after sowing, the test plants were treated at the one-leaf stage. The compounds of the invention, formulated in the form of wettable powders (WP) or as emulsion concentrates (EC), were applied onto the green parts of the plants as aqueous suspension or emulsion with addition of 0.5% additive at a water application rate of 600 liters per hectare (converted). After the test plants had been kept in the greenhouse under optimum growth conditions for about 3 weeks, the activity of the preparations was rated visually in comparison to untreated controls. For example, 100% activity = the plants have died, 0% activity = like control plants. Tables B1 to B12, below, show the effects of selected compounds of the general formula (I) according to table 1 on various harmful plants and an application rate corresponding to 1280 g/ha or below obtained by the experimental procedure mentioned above. Table B1a: post-emergence activity at 1280g/ha against ABUTH in %

KCHSC = assay: as above; format: in vivo, Kochia scoparia
Protocol: as §3

DIGSA [5] = assay: as above; format: in vivo, Digitaria sanguinalis; settings: application rate 1280 g/ha; Table B12a
Outline: as §2

STEME = assay: A. Herbicidal pre-emergence action on harmful plants (Tables A); format: in vivo, Stellaria media; settings: application rate 1280 g/ha; visual grading after ca. 3 weeks vs untreated controls; 100% = plants have died off, 0% = as control plants
Outline: as §1

ALOMY = assay: as above; format: in vivo, Alopecurus myosuroides; settings: application rate 1280 g/ha; Table A9a
Outline: as §1

VERPE = assay: as above; format: in vivo, Veronica persica; settings: application rate 1280 g/ha; Table A11
Source text: Seeds of mono- and dicotyledonous weed plants were sown in plastic pots (double sowings with one species of mono- and one species of dicotyledonous weed plants per pot), in sandy loam, and covered with soil. The compounds according to the invention, formulated in the form of wettable powders (WP) or as emulsifiable concentrates (EC), were applied to the surface of the covering soil as aqueous suspension or emulsion, with the addition of 0.5% of an additive, at an application rate of 6001 of water per hectare (converted). Following treatment, the pots were placed in a greenhouse and kept under optimum growth conditions for the test plants. The visual grading of the damage to the test plants was carried out after ca. 3 weeks in comparison to untreated controls (herbicidal effect in percent (%): 100% effect = plants have died off, 0% effect = as control plants). Tables A1 to A12, below, show the effects of selected compounds of the general formula (I) according to table 1 on various harmful plants and an application rate corresponding to 1280 g/ha or below obtained by the experimental procedure mentioned above. Table A1: pre-emergence activity at 1280g/ha against ABUTH in %

POAAN [6] = assay: B. Herbicidal post-emergence action on harmful plants (Tables B); format: in vivo, Poa annua; settings: application rate 1280 g/ha; Table B7a
Outline: as §2

[7] = application rate 1280 g/ha, Table B10a

Structure (SMILES) | pre-emergence activity against ECHCG (ECHCG) [%] | pre-emergence activity against SETVI (SETVI) [%] | pre-emergence activity against POAAN (POAAN [1]) [%] | pre-emergence activity against AMARE (AMARE [2]) [%] | pre-emergence activity against DIGSA (DIGSA [3]) [%] | post-emergence activity against MATIN (MATIN) [%] | post-emergence activity against AMARE (AMARE [4]) [%] | post-emergence activity against KCHSC (KCHSC; application rate 320 g/ha, Table B10b) [%] | post-emergence activity against KCHSC (KCHSC; [7]) [%] | post-emergence activity against DIGSA (DIGSA [5]) [%] | pre-emergence activity against STEME (STEME) [%] | pre-emergence activity against ALOMY (ALOMY) [%] | pre-emergence activity against VERPE (VERPE) [%] | post-emergence activity against POAAN (POAAN [6]) [%]
CC(C)COCc1nn(C)cc1C(=O)N1CCCC1Cc1cc(F)ccc1F (racemic) [Example I-009] | 100 | 100 | 100 | 100 | 90 | 90 | 90 | 100 | 100 | 100 | – | – | – | –
Cn1ncc(C(=O)N2CCCC2Cc2ccccc2F)c1COCC(F)(F)F (racemic) [Example I-163] | 90 | – | 100 | – | 90 | – | – | – | 90 | – | 90 | 100 | 100 | 100
